“And” between values parts separate entries of the source, which are not always exact repeats. Equal values may be shown once. Inconclusive results and toxic doses are left out.
System: B6C3F1 mice, B16 melanoma ip, median survival T/C
Test: NCI In Vivo Anticancer Drug Screen. Data for tumor model B16 Melanoma (intraperitoneal) in B6C3F1 mice
Conditions: endpoint: median survival time, higher = longer survival
Experimental: The antitumor activity of compounds was measured in mice bearing transplantable tumors. Survival or tumor size were measured and the results are expressed as the measurement made in the treated group (T) divided by the measurement made in the vehicle treated control group (C). The tumor model used in this assay is B16 Melanoma (intraperitoneal) in B6C3F1 mice

[1] = dose: 12.5 mg/kg/injection, schedule: Q01DX009 (ip), vehicle: saline with Tween-80
[2] = dose: 25.0 mg/kg/injection, schedule: Q01DX009 (ip), vehicle: saline with Tween-80
[3] = dose: 50.0 mg/kg/injection, schedule: Q01DX009 (ip), vehicle: saline with Tween-80
[4] = dose: 100.0 mg/kg/injection, schedule: Q01DX009 (ip), vehicle: saline with Tween-80
[5] = dose: 200.0 mg/kg/injection, schedule: Q01DX009 (ip), vehicle: saline with Tween-80
[6] = dose: 3.12 mg/kg/injection, schedule: Q01DX009 (ip), vehicle: Klucel (hydroxypropylcellulose) (HPC)
[7] = dose: 6.25 mg/kg/injection, schedule: Q01DX009 (ip), vehicle: Klucel (hydroxypropylcellulose) (HPC)
[8] = dose: 12.5 mg/kg/injection, schedule: Q01DX009 (ip), vehicle: Klucel (hydroxypropylcellulose) (HPC)
[9] = dose: 25.0 mg/kg/injection, schedule: Q01DX009 (ip), vehicle: Klucel (hydroxypropylcellulose) (HPC)
[10] = dose: 50.0 mg/kg/injection, schedule: Q01DX009 (ip), vehicle: Klucel (hydroxypropylcellulose) (HPC)
[11] = dose: 100.0 mg/kg/injection, schedule: Q01DX009 (ip), vehicle: Klucel (hydroxypropylcellulose) (HPC)
[12] = dose: 200.0 mg/kg/injection, schedule: Q01DX009 (ip), vehicle: Klucel (hydroxypropylcellulose) (HPC)
[13] = dose: 400.0 mg/kg/injection, schedule: Q01DX009 (ip), vehicle: Klucel (hydroxypropylcellulose) (HPC)

C[Si](C)(CCl)N[Si](C)(C)CCl
T/C [1]: 100 % of control | T/C [2]: 104 % of control | T/C [3]: 99 % of control | T/C [4]: 96 % of control

O=C1N[C@@H]([C@H]2CC[C@H](Cl)CN2)C(=O)N[C@H]1[C@H]1CC[C@H](Cl)CN1
T/C (dose: 0.25 mg/kg/injection, schedule: Q01DX005 (ip), vehicle: saline): 99 % of control | T/C (dose: 0.25 mg/kg/injection, schedule: Q01DX005 (iv), vehicle: saline): 105 % of control | T/C (dose: 0.25 mg/kg/injection, schedule: Q01DX009 (ip), vehicle: saline): 107 % of control | T/C (dose: 0.5 mg/kg/injection, schedule: Q01DX005 (ip), vehicle: saline): 100 % of control | T/C (dose: 0.5 mg/kg/injection, schedule: Q01DX005 (iv), vehicle: saline): 95 % of control | T/C (dose: 0.5 mg/kg/injection, schedule: Q01DX005 (oral), vehicle: saline): 96 % of control | T/C (dose: 0.5 mg/kg/injection, schedule: Q04DX003 (ip), vehicle: saline): 97 % of control | T/C (dose: 1.0 mg/kg/injection, schedule: Q01DX005 (ip), vehicle: saline): 124 % of control | T/C (dose: 1.0 mg/kg/injection, schedule: Q01DX005 (iv), vehicle: saline): 99 % of control | T/C (dose: 1.0 mg/kg/injection, schedule: Q01DX005 (oral), vehicle: saline): 99 % of control | T/C (dose: 1.0 mg/kg/injection, schedule: Q04DX003 (ip), vehicle: saline): 103 % of control | T/C (dose: 2.0 mg/kg/injection, schedule: Q01DX005 (iv), vehicle: saline): 108 % of control | T/C (dose: 2.0 mg/kg/injection, schedule: Q01DX005 (oral), vehicle: saline): 115 % of control | T/C (dose: 2.0 mg/kg/injection, schedule: Q04DX003 (ip), vehicle: saline): 108 % of control | T/C (dose: 4.0 mg/kg/injection, schedule: Q01DX005 (ip), vehicle: saline): 183 % of control | T/C (dose: 4.0 mg/kg/injection, schedule: Q01DX005 (iv), vehicle: saline): 120 % of control | T/C (dose: 4.0 mg/kg/injection, schedule: Q01DX005 (oral), vehicle: saline): 110 % of control | T/C (dose: 4.0 mg/kg/injection, schedule: Q04DX003 (ip), vehicle: saline): 112 % of control

BrC1CC(Br)c2c1c1c(c3c2C(Br)CC3Br)C(Br)CC1Br (configuration not stated)
T/C [1]: 108 % of control and 105 % of control | T/C [2]: 114 % of control and 117 % of control and 123 % of control | T/C [3]: 114 % of control | T/C [4]: 118 % of control and 93 % of control | T/C [5]: 123 % of control

CC(C)CC(NC(=O)OCc1ccccc1)C(=O)O (configuration not stated)
T/C [1]: 108 % of control | T/C [2]: 102 % of control | T/C [3]: 102 % of control and 106 % of control | T/C [4]: 112 % of control and 101 % of control | T/C [5]: 105 % of control

O=NN(CCCl)C(=O)Oc1ccc(OC(=O)N(CCCl)N=O)cc1
T/C [6]: 112 % of control | T/C [7]: 107 % of control | T/C [8]: 107 % of control

COc1cccc(/C=C/[N+](=O)[O-])c1OC
T/C [6]: 100 % of control | T/C [7]: 98 % of control | T/C [8]: 94 % of control | T/C [9]: 96 % of control

O=C(CCl)NC(Cc1ccc(O)cc1)C(=O)O (configuration not stated)
T/C [3]: 93 % of control | T/C [4]: 87 % of control

Oc1cccc2ccccc12
T/C (dose: 25.0 mg/kg/injection, schedule: Q01DX009 (sc), vehicle: other): 97 % of control | T/C (dose: 50.0 mg/kg/injection, schedule: Q01DX009 (sc), vehicle: other): 94 % of control | T/C (dose: 100.0 mg/kg/injection, schedule: Q01DX009 (sc), vehicle: other): 100 % of control | T/C (dose: 200.0 mg/kg/injection, schedule: Q01DX009 (sc), vehicle: other): 92 % of control

CN(C)C(=O)SC1=C(c2c(Cl)cccc2Cl)C(=O)c2ccccc21
T/C [9]: 98 % of control | T/C [10]: 96 % of control | T/C [11]: 101 % of control | T/C [12]: 101 % of control

CC(C)C(NC(=O)CCNC(=O)OCc1ccccc1)C(=O)O (configuration not stated)
T/C [11]: 100 % of control | T/C [12]: 116 % of control | T/C [13]: 87 % of control

O=NNc1ccccn1
T/C (dose: 1.56 mg/kg/injection, schedule: Q01DX009 (ip), vehicle: water): 120 % of control and 96 % of control | T/C (dose: 3.12 mg/kg/injection, schedule: Q01DX009 (ip), vehicle: water): 116 % of control and 120 % of control and 124 % of control

CN1CCc2c(c3ccccc3c3ccccc23)C1
T/C [6]: 116 % of control and 94 % of control | T/C [7]: 87 % of control and 99 % of control | T/C [8]: 88 % of control and 102 % of control and 106 % of control | T/C [9]: 90 % of control and 102 % of control | T/C [10]: 116 % of control and 97 % of control and 102 % of control | T/C [11]: 118 % of control and 92 % of control

CCO/C=C1\SC(=S)N(c2ccccc2C)C1=O
T/C [1]: 111 % of control | T/C [2]: 111 % of control | T/C [3]: 108 % of control and 105 % of control | T/C [4]: 109 % of control and 116 % of control | T/C [5]: 112 % of control and 116 % of control

O=C(NC(Cc1cn(Cc2ccccc2)cn1)C(=O)O)OCC1c2ccccc2-c2ccccc21 (configuration not stated)
T/C [11]: 111 % of control | T/C [12]: 103 % of control | T/C [13]: 115 % of control

Nc1nc(-c2ccc(S(=O)(=O)O)cc2)cc(=O)[nH]1
T/C (dose: 3.31 mg/kg/injection, schedule: Q01DX009 (ip), vehicle: saline): 100 % of control | T/C (dose: 6.62 mg/kg/injection, schedule: Q01DX009 (ip), vehicle: saline): 105 % of control | T/C (dose: 13.25 mg/kg/injection, schedule: Q01DX009 (ip), vehicle: saline): 105 % of control | T/C (dose: 26.5 mg/kg/injection, schedule: Q01DX009 (ip), vehicle: saline): 96 % of control and 104 % of control | T/C (dose: 53.0 mg/kg/injection, schedule: Q01DX009 (ip), vehicle: saline): 104 % of control | T/C (dose: 106.0 mg/kg/injection, schedule: Q01DX009 (ip), vehicle: saline): 110 % of control

CC(=O)OCC1OC(n2ccc(N)nc2=O)C(OC(C)=O)C1OC(C)=O (configuration not stated)
T/C (dose: 12.5 mg/kg/injection, schedule: Q01DX009 (ip), vehicle: saline): 106 % of control | T/C (dose: 25.0 mg/kg/injection, schedule: Q01DX009 (ip), vehicle: saline): 104 % of control | T/C (dose: 50.0 mg/kg/injection, schedule: Q01DX009 (ip), vehicle: saline): 109 % of control | T/C (dose: 100.0 mg/kg/injection, schedule: Q01DX009 (ip), vehicle: saline): 108 % of control | T/C (dose: 200.0 mg/kg/injection, schedule: Q01DX009 (ip), vehicle: saline): 120 % of control

O=C1C(=O)c2cccnc2-c2ncccc21
T/C (dose: 0.75 mg/kg/injection, schedule: Q01DX009 (ip), vehicle: Klucel (hydroxypropylcellulose) (HPC)): 104 % of control | T/C (dose: 0.78 mg/kg/injection, schedule: Q01DX009 (ip), vehicle: Klucel (hydroxypropylcellulose) (HPC)): 102 % of control | T/C (dose: 1.5 mg/kg/injection, schedule: Q01DX009 (ip), vehicle: Klucel (hydroxypropylcellulose) (HPC)): 115 % of control and 107 % of control | T/C (dose: 1.56 mg/kg/injection, schedule: Q01DX009 (ip), vehicle: Klucel (hydroxypropylcellulose) (HPC)): 115 % of control and 98 % of control | T/C (dose: 3.0 mg/kg/injection, schedule: Q01DX009 (ip), vehicle: Klucel (hydroxypropylcellulose) (HPC)): 119 % of control and 92 % of control and 98 % of control | T/C [6]: 114 % of control and 100 % of control | T/C (dose: 6.0 mg/kg/injection, schedule: Q01DX009 (ip), vehicle: Klucel (hydroxypropylcellulose) (HPC)): 113 % of control and 87 % of control and 108 % of control | T/C [7]: 109 % of control

CC1=CC2C(O)(CC(CO)=CC3C4C(C)(C)C4(OC(=O)c4ccccc4)C(OC(=O)c4ccccc4)C(C)C32O)C1=O (configuration not stated)
T/C (dose: 0.13 mg/kg/injection, schedule: Q01DX009 (ip), vehicle: saline with Tween-80): 98 % of control | T/C (dose: 0.25 mg/kg/injection, schedule: Q01DX009 (ip), vehicle: saline with Tween-80): 90 % of control | T/C (dose: 0.5 mg/kg/injection, schedule: Q01DX009 (ip), vehicle: saline with Tween-80): 93 % of control | T/C (dose: 1.0 mg/kg/injection, schedule: Q01DX009 (ip), vehicle: saline with Tween-80): 95 % of control | T/C (dose: 2.0 mg/kg/injection, schedule: Q01DX009 (ip), vehicle: saline with Tween-80): 90 % of control

CCC(C)(OC(C)=O)C(=O)OC1C(=O)OC2CC3C(C)=CC(O)C(O)C3(C)C3C4(O)OCC23C1C(C)C4O (configuration not stated)
T/C (dose: 0.25 mg/kg/injection, schedule: Q01DX009 (ip), vehicle: saline + alcohol): 100 % of control | T/C (dose: 0.5 mg/kg/injection, schedule: Q01DX009 (ip), vehicle: saline + alcohol): 115 % of control | T/C (dose: 1.0 mg/kg/injection, schedule: Q01DX009 (ip), vehicle: saline + alcohol): 112 % of control | T/C (dose: 2.0 mg/kg/injection, schedule: Q01DX009 (ip), vehicle: saline + alcohol): 109 % of control | T/C (dose: 4.0 mg/kg/injection, schedule: Q01DX009 (ip), vehicle: saline + alcohol): 109 % of control

Reference: PubChem BioAssay AID200 (DTP/NCI, 2004)
